Data as given in patent US9227962B2, “Heterocyclic substituted-3-heteroarylidenyl-2-indolinone derivative” (Dainippon Sumitomo Pharma Co., Ltd., priority 2013, dated 2016).
Values after ≈ are worked out from the molar mass of the structure shown. Where two headings read alike, the source gives them in different places.

Legend:
[1] = solubility in buffer solution, HPLC; type: physicochemical; settings: kinetic from dmso stock
Protocol: A solution of compounds (10 mM in dimethylsulfoxide, 2 μL) was diluted with 50% acetonitrile (198 μL), and this solution was used as a standard solution.
On the other hand, a solution of compounds (10 mM in dimethylsulfoxide, 15 μL) was transferred to a 96 well plate, then solvent was removed in vacuo. Dimethyl sulfoxide (3 μL) was added to dissolve a residual solid, and then buffer solution (pH7.4 or 1.2, 300 μL) was added. The mixture was vigorously stirred for 90 min, then leave it for 16-20 h. An insoluble material was removed, then the solution was analyzed by HPLC. The concentration of compound, which was corresponding to a solubility of the compound, was determined by the comparison with area value between sample and the standard solution.

[2] = system: CD44high FaDu cancer stem cells; assay: sphere assay (sphere formation of CSC); type: cell-based; settings: Homo sapiens, spheres scored after 10-14 days
Excerpt: CSC isolation with surface markers: Sorting tumor cells based primarily upon the differential expression of the surface marker(s), such as CD44 or CD133, have accounted for the majority of the highly tumorigenic CSCs described to date. CD44^high cells were isolated by FACS according to the methods described in Ponti et al, with slight modification [Ponti, D., et al, Isolation and in vitro propagation of tumorigenic breast cancer cells with stem/progenitor cell properties. Cancer Res, 2005. 65(13); p. 5506-11.], Briefly, after trypsinization and recovery of cells for 30 minutes at 37° C. in growth media, cells were pelleted at 400×g and were resuspended in PBS with 2% FBS and ImM EDTA at 1×10^6 cells/mL. Cells were then incubated on ice with a 1:100 dilution of CD44-FITC (BD Biosicences, San Diego, Calif.) for 15 minutes. Alternatively, CD24-PE (BD Bioscences, San Diego, Calif.) (1:100) was utilized for negative selection. After washing three times, cells were resuspended at […] and passed through a […] before sorting.
Sphere assay: A reliable method of measuring the self-renewal capacity of cell population if the ability to be cultured as spheres in the absence of serum or attachment. CD44^high FaDu cancer stem cells were cultured in ultra low attachment plates in cancer stem cell media (DMEM/F12, B27 Neurobasal supplement, 20 ng/ml EGF, 10 ng/rnl FGF, 4 µg/ml insulin, and 0.4% BSA) to allow spheres formation. Typically, sphere formation was evaluated by microscopy after 10-14 days in culture and spheres with >50 cells were scored.

FaDu = assay: colony formation assay (cell viability determination); type: cell-based; settings: Homo sapiens; FaDu cells, colonies counted after 7-10 days; read-out: colonyformation IC50
Protocol: Cell Culture: FaDu (ATCC, Manassas, Va.) was maintained in Dulbecco's Modified Eagle Medium (DMEM) (Invitrogen, Carlsbad, Calif.) supplemented with 10% fetal bovine serum (FBS) (Gemini Bio-Products, West Sacramento, Calif.) and 5% penicillin/streptomycin/amphotercin B (Invitrogen).
Cell Viability Determination: For colony formation assay, cells were plated in 6 well plates at 2000 cells per well. Twenty-four hours after plating, cells were treated with compound. Colonies were allowed to develop for 7-10 days, at which they were stained with modified Giemsa stain (Sigma). Stained colonies were then counted to determine IC50.

[3] = aqueous buffer, buffer solution pH 7.4, read-out: solubility pH 7.4
[4] = simulated gastric fluid, buffer solution pH 1.2, read-out: solubility pH 1.2

CCN(CC)CCNC(=O)c1c(C)[nH]c(/C=C2\C(=O)Nc3ccc(C4CCN(C5CCOCC5)CC4)cc32)c1C [Example 12]
solubility [1, 3]: > 200 µg/mL | solubility [1, 4]: > 200 µg/mL | IC50 [2]: > 50 µM

CCN(CC)CCNC(=O)c1c(C)[nH]c(/C=C2\C(=O)Nc3ccc(-c4ccc(-c5cccnc5)s4)cc32)c1C [Example 26]
solubility [1, 3]: < 0.5 µg/mL | solubility [1, 4]: > 200 µg/mL

Cc1[nH]c(/C=C2\C(=O)Nc3ccc(-c4cnn(-c5ccccn5)c4)cc32)c(C)c1C(=O)N1CCOCC1 [Example 30]
IC50 (FaDu): > 100 µM

Cc1[nH]c(/C=C2\C(=O)Nc3ccc(-c4cnn(-c5ccccn5)c4)cc32)c(C)c1C(=O)N1CCN(C)CC1 [Example 31]
IC50 [2]: 0.2 µM

Cc1nc(-c2ccccc2)oc1-c1ccc2c(c1)NC(=O)/C2=C\c1[nH]c(C)c(C(=O)N2CCN(C)CC2)c1C [Example 38]
IC50 (FaDu): 6.2 µM | IC50 [2]: 2 µM

CCN(CC)CCNC(=O)c1c(C)[nH]c(/C=C2\C(=O)Nc3ccc(-c4cnc(-c5ccccc5)[nH]4)cc32)c1C [Example 41]
solubility [1, 3]: 0.3 µg/mL (≈ 0.574 µM) | solubility [1, 4]: 186 µg/mL (≈ 356 µM)

CCN(CC)CCNC(=O)c1c(C)[nH]c(/C=C2\C(=O)Nc3ccc(C4CCN(c5ccccc5)CC4)cc32)c1C [Example 42]
solubility [1, 3]: 11 µg/mL (≈ 20.4 µM) | solubility [1, 4]: > 200 µg/mL

CCN(CC)CCNC(=O)c1c(C)[nH]c(/C=C2\C(=O)Nc3ccc(C4CCN(c5ncccn5)CC4)cc32)c1C [Example 43]
solubility [1, 3]: 0.4 µg/mL (≈ 0.738 µM) | solubility [1, 4]: 163 µg/mL (≈ 301 µM) | IC50 [2]: 1.9 µM

CCN(CC)CCNC(=O)c1c(C)[nH]c(/C=C2\C(=O)Nc3ccc(C4CCN(C5CCN(C(C)=O)CC5)CC4)cc32)c1C [Example 45]
IC50 [2]: > 50 µM

CCN(CC)CCNC(=O)c1c(C)[nH]c(/C=C2\C(=O)Nc3ccc(-c4cn(-c5ccccc5)nn4)cc32)c1C [Example 48]
solubility [1, 3]: < 0.3 µg/mL | solubility [1, 4]: 147 µg/mL (≈ 281 µM)

CCN(CC)CCNC(=O)c1c(C)[nH]c(/C=C2\C(=O)Nc3ccc(-n4cc(-c5ccccc5)nn4)cc32)c1C [Example 49]
solubility [1, 3]: 13 µg/mL (≈ 24.8 µM) | solubility [1, 4]: 109 µg/mL (≈ 208 µM)

CCN(CC)CCNC(=O)c1c(C)[nH]c(/C=C2\C(=O)Nc3ccc(-c4nc(-c5ccccc5)n[nH]4)cc32)c1C [Example 50]
solubility [1, 3]: 7 µg/mL (≈ 13.4 µM) | solubility [1, 4]: 154 µg/mL (≈ 294 µM)

CCN(CC)CCNC(=O)c1c(C)[nH]c(/C=C2\C(=O)Nc3ccc(-c4nc(-c5ccccc5)cs4)cc32)c1C [Example 51, (Z)—N-(2-(diethylamino)ethyl)-2,4-dimethyl-5-((2-oxo-5-(4-phenylthiazol-2-yl)indolin-3-ylidene)methyl)-1H-pyrrole-3-carboxamide]
solubility [1, 3]: < 0.5 µg/mL | solubility [1, 4]: > 200 µg/mL

CCN(CC)CCNC(=O)c1c(C)[nH]c(/C=C2\C(=O)Nc3ccc(-c4nnc(-c5ccccc5)s4)cc32)c1C [Example 52]
solubility [1, 3]: 4 µg/mL (≈ 7.4 µM) | solubility [1, 4]: 163 µg/mL (≈ 301 µM)

CCN(CC)CCNC(=O)c1c(C)[nH]c(/C=C2\C(=O)Nc3ccc(-c4nnc(-c5ccccc5)o4)cc32)c1C [Example 53]
solubility [1, 3]: 61 µg/mL (≈ 116 µM) | solubility [1, 4]: > 200 µg/mL

CCN(CC)CCNC(=O)c1c(C)[nH]c(/C=C2\C(=O)Nc3ccc(-c4cc(-c5ccccc5)nn4C)cc32)c1C [Example 55]
solubility [1, 3]: 0.5 µg/mL (≈ 0.932 µM) | solubility [1, 4]: 43 µg/mL (≈ 80.1 µM)
